Assay results published in US6545037B2, “Benzenesulfonamide compounds” (Les Laboratoires Servier, priority 2000, dated 2003).

How the values were obtained:
[1] = test system: Platelet-rich plasma (PRP); experiment: Platelet aggregation in man induced by the TXA2 agonist U46619; type: cell-based; conditions: human PRP, U46619 1 μM
Experimental: (§1) Platelet aggregation in man
(§2) Venous blood is obtained from human volunteers who have not taken aspirin for at least 14 days prior to the experiment. The blood is removed over sodium citrate (0.109 M) (1 vol. of citrate over 9 vol. of blood). Platelet-rich plasma (PRP) is obtained by centrifugation (20° C.) at 200 g for 10 minutes. The number of platelets is on average 250000 PL/mm^3. The PRP is stored at room temperature until the test and is used within 2 hours of having been taken. The TXA2 agonist U46619 is used at a concentration of 1 μM and 5-hydroxytryptamine is used at a concentration of 10 μM, the latter in the presence of 0.3 μM adenosine diphosphate and 1 μM adrenalin.
(§3) The values indicate that the compounds of the invention are powerful platelet anti-aggregants, which act in a balanced manner on the two activation routes, that of TXA2 and that of serotonin.

[2] = test system: Platelet-rich plasma (PRP); experiment: Platelet aggregation in man induced by 5-hydroxytryptamine; type: cell-based; conditions: human PRP, 5-hydroxytryptamine 10 μM in the presence of 0.3 μM adenosine diphosphate and 1 μM adrenalin, read-out: IC50, platelet aggregation produced by 5-hydroxytryptamine
Experimental: as §1, §2, §3

For `O=C(O)CCc1cc(CCN2CCC(c3nsc4cc(F)ccc34)CC2)cc2c1CCC(NS(=O)(=O)c1ccc(Cl)cc1)C2` (centres unmarked) [Example 4, 3-(6-{[(4-Chlorophenyl)sulphonyl]amino}-3-{2-[4-(6-fluoro-1,2-benzisothiazol-3-yl)-1-piperidinyl]ethyl}-5,6,7,8-tetrahydro-1-naphthyl)propanoic acid], the IC50 [1] was 170 nM and the IC50 [2] was 230 nM.
